ChEMBL document CHEMBL3991601, “The target landscape of clinical kinase drugs” (Science, 2017)
Activity calls are given as the source filed them.

How the values were obtained:
Ephrin type-B receptor 3 = target: T1, Ephrin type-B receptor 3 (Homo sapiens, UniProt P54753)
T1 sequence (P54753 whole entry): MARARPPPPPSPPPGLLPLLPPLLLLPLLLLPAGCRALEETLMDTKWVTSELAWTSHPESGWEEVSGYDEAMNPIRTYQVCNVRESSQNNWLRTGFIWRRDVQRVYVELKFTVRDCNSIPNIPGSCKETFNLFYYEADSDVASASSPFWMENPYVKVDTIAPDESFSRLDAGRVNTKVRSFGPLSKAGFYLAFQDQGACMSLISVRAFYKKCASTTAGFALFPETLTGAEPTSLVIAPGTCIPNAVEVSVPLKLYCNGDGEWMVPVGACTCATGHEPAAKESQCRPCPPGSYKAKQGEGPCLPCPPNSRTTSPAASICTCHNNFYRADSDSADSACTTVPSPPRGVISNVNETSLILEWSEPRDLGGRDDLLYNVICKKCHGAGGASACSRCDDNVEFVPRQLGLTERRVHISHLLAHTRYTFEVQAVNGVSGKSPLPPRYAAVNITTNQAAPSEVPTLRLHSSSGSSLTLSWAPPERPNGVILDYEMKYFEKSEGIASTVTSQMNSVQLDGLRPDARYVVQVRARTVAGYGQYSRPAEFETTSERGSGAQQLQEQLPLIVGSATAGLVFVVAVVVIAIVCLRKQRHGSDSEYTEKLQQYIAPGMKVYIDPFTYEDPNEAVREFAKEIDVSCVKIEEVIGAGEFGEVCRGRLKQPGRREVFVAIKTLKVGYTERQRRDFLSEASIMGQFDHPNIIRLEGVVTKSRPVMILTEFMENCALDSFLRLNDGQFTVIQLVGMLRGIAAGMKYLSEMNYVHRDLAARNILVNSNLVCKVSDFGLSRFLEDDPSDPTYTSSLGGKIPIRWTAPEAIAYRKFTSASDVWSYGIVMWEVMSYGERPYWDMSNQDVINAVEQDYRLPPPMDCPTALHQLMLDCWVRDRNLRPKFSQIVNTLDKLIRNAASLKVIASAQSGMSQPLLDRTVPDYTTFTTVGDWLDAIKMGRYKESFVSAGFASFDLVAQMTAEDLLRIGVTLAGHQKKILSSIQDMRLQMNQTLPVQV

[1] = target: T2, Mitogen-activated protein kinase 15 (Homo sapiens, UniProt Q8TD08)
T2 sequence (Q8TD08 whole entry): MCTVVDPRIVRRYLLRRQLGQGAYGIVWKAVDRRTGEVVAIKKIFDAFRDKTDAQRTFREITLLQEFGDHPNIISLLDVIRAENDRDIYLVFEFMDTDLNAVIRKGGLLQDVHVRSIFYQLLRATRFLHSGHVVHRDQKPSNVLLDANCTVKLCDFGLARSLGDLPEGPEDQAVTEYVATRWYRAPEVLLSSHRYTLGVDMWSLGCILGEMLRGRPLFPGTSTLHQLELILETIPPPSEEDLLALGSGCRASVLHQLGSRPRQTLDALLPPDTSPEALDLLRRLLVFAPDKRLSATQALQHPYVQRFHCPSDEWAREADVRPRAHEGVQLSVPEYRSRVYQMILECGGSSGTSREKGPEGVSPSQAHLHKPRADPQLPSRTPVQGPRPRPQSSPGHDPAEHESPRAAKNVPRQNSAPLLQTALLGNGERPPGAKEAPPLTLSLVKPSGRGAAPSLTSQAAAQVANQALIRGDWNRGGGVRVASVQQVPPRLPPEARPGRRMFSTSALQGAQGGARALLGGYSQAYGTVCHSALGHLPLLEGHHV

[2] = target: NADH dehydrogenase [ubiquinone] 1 alpha subcomplex subunit 13 (Homo sapiens, UniProt Q9P0J0)
Chain of NADH dehydrogenase [ubiquinone] 1 alpha subcomplex subunit 13 (Q9P0J0 whole entry, one chain of several): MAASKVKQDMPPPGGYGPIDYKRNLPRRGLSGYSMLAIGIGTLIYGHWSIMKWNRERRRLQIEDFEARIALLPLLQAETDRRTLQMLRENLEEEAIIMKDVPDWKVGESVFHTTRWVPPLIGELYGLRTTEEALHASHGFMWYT

Activin receptor type-2B = Activin receptor type-2B (Homo sapiens, UniProt Q13705)
Chain of Activin receptor type-2B (Q13705 whole entry): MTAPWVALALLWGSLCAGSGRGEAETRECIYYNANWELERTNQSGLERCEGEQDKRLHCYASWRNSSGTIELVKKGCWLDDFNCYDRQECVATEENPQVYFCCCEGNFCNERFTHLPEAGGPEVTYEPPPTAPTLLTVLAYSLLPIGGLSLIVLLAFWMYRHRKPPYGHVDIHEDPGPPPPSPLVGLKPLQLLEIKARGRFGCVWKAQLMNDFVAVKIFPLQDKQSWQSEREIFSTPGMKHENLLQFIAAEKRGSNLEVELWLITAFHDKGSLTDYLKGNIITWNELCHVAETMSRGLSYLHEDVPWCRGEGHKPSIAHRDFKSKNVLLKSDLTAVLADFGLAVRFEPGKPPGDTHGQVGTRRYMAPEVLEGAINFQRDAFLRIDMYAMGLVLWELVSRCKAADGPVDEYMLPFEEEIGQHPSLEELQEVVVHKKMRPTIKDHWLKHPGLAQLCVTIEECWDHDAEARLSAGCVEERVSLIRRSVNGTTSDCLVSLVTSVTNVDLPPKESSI

[3] = target: T3, Serine/threonine-protein kinase Nek3 (Homo sapiens, UniProt P51956)
T3 sequence (P51956 whole entry): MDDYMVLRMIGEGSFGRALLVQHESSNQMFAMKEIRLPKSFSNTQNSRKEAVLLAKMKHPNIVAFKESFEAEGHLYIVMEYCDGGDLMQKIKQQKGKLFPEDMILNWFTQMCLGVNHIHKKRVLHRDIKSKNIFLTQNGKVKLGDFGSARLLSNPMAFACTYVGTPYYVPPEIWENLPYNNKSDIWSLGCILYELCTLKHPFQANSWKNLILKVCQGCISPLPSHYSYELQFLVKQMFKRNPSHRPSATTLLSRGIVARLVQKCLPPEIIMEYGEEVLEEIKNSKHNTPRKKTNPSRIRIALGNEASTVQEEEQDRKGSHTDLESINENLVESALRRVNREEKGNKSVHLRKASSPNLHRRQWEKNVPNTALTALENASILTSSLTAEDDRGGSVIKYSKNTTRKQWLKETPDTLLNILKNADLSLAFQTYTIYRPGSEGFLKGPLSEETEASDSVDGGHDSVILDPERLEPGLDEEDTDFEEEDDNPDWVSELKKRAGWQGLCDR
Note: in the data inactive means no Kd found up to 30 µM.

Row | SMILES | Kd (Ephrin type-B receptor 3) | Kd [2] | Kd (Activin receptor type-2B) | Kd [3] | Kd [1]
1 | Cn1cc(C2=C(c3cn(C4CCN(Cc5ccccn5)CC4)c4ccccc34)C(=O)NC2=O)c2ccccc21 [ENZASTAURIN] |  | > 30 µM (inactive) |  |  | 
2 | CC(=O)c1cnc2ccc(-c3cc(Cl)c(O)c(Cl)c3)nc2c1N[C@H]1CC[C@H](CN(C)C)CC1 | > 30 µM (inactive) | > 30 µM (inactive) | > 30 µM (inactive) | > 30 µM (inactive) | 0.09 µM (active)
3 | CC(C)(C)c1nc(-c2cccc(NS(=O)(=O)c3c(F)cccc3F)c2F)c(-c2ccnc(N)n2)s1 [DABRAFENIB] | > 30 µM (inactive) | > 30 µM (inactive) | > 30 µM (inactive) | > 30 µM (inactive) | > 30 µM (inactive)
4 | CC(C)c1cc(CNc2nc(Nc3cc(C4CC4)[nH]n3)cc(N3CCN(C)CC3)n2)on1 [XL-228] | > 30 µM (inactive) | > 30 µM (inactive) | > 30 µM (inactive) | > 30 µM (inactive) | > 30 µM (inactive)
5 | CO[C@H]1C[C@@H]2CC[C@@H](C)[C@@](O)(O2)C(=O)C(=O)N2CCCC[C@H]2C(=O)O[C@H]([C@H](C)C[C@@H]2CC[C@@H](O)[C@H](OC)C2)CC(=O)[C@H](C)/C=C(\C)[C@@H](O)[C@@H](OC)C(=O)[C@H](C)C[C@H](C)/C=C/C=C/C=C/1C [SIROLIMUS] | > 30 µM (inactive) |  | > 30 µM (inactive) | > 30 µM (inactive) | > 30 µM (inactive)
6 | O=C(Nc1cc(C(F)(F)F)cc(C(F)(F)F)c1)c1cc(Cl)ccc1O [IMD-0354] | > 30 µM (inactive) | > 30 µM (inactive) | > 30 µM (inactive) | > 30 µM (inactive) | > 30 µM (inactive)
7 | Cc1cc(Nc2ncnc3ccc(NC4=NC(C)(C)CO4)cc23)ccc1Oc1ccn2ncnc2c1 [TUCATINIB] | > 30 µM (inactive) | > 30 µM (inactive) | > 30 µM (inactive) | > 30 µM (inactive) | > 30 µM (inactive)
8 | N#CC[C@H](C1CCCC1)n1cc(-c2ncnc3[nH]ccc23)cn1 [RUXOLITINIB] |  | > 30 µM (inactive) |  | 29.9 µM (active) | 
9 | Cc1nc(NC(=O)N2CCC[C@H]2C(N)=O)sc1-c1ccnc(C(C)(C)C(F)(F)F)c1 [ALPELISIB] | > 30 µM (inactive) |  |  | > 30 µM (inactive) | > 30 µM (inactive)
10 | CC(=O)NCC(=O)N1[C@@H]2CC[C@H]1c1ccc(Nc3ncc(C(F)(F)F)c(NC4CCC4)n3)cc12 [PF-03814735] | > 30 µM (inactive) |  | > 30 µM (inactive) | > 30 µM (inactive) | > 30 µM (inactive)
11 | C[C@H]1CNCCCN1S(=O)(=O)c1cccc2cncc(F)c12 | > 30 µM (inactive) | > 30 µM (inactive) | > 30 µM (inactive) | > 30 µM (inactive) | 
12 | O=C(NOCCO)c1cc(CN2OCCCC2=O)c(F)c(F)c1Nc1ccc(I)cc1F [RO-4987655] |  | > 30 µM (inactive) |  |  | 
13 | O=C(Nc1c[nH]nc1-c1nc2cc(CN3CCOCC3)ccc2[nH]1)NC1CC1 [AT-9283] | > 30 µM (inactive) | > 30 µM (inactive) | > 30 µM (inactive) |  | > 30 µM (inactive)

Second part, led by results:

Row | Kd (Ephrin type-B receptor 3) | Kd [2] | Kd (Activin receptor type-2B) | Kd [3] | SMILES | Kd [1]
14 | > 30 µM (inactive) | > 30 µM (inactive) | > 30 µM (inactive) | > 30 µM (inactive) | Cn1cc(-c2cnc3ccc4ccc(CS(=O)(=O)NCc5ccccn5)cc4c(=O)c3c2)cn1 [MK-8033] | > 30 µM (inactive)
15 | > 30 µM (inactive) | > 30 µM (inactive) | > 30 µM (inactive) | > 30 µM (inactive) | CN(C[C@@H]1COCCO1)S(=O)(=O)Nc1ccc2ccc3ncc(-c4cnn(C)c4)cc3c(=O)c2c1 [MK-2461] | > 30 µM (inactive)
16 | > 30 µM (inactive) | > 30 µM (inactive) | > 30 µM (inactive) | > 30 µM (inactive) | CN1C/C=C/CCOc2cccc(c2)-c2ccnc(n2)Nc2cccc(c2)C1 [ZOTIRACICLIB] | 1.07 µM (active)
17 | > 30 µM (inactive) | > 30 µM (inactive) | > 30 µM (inactive) | > 30 µM (inactive) | Cc1cc(Nc2ncc(Cl)c(Nc3ccccc3S(=O)(=O)C(C)C)n2)c(OC(C)C)cc1C1CCNCC1 [CERITINIB] | > 30 µM (inactive)
18 | > 30 µM (inactive) | > 30 µM (inactive) | > 30 µM (inactive) | > 30 µM (inactive) | Cc1nc2cc(-n3ncc(C(=O)c4cc5ccccc5[nH]4)c3N)ccc2[nH]1 [FGFR INHIBITOR DEBIO 1347] | > 30 µM (inactive)
19 | > 30 µM (inactive) | > 30 µM (inactive) |  | > 30 µM (inactive) | CCn1cc(-c2ccnc3[nH]c(-c4cccc(CN(C)C)c4)cc23)c(-c2ccc(NC(=O)N(C)C)cc2)n1 [GSK-1070916] | > 30 µM (inactive)
20 | > 30 µM (inactive) | > 30 µM (inactive) | > 30 µM (inactive) | > 30 µM (inactive) | C[C@@H](N)c1ccc(C(=O)Nc2ccnc3[nH]ccc23)cc1 [Y-39983] | > 30 µM (inactive)
21 | > 30 µM (inactive) | > 30 µM (inactive) | > 30 µM (inactive) | > 30 µM (inactive) | N#CC1(c2ccc(NC(=O)c3cccnc3NCc3ccncc3)cc2)CCCC1 [RIVOCERANIB] | > 30 µM (inactive)
22 | > 30 µM (inactive) | > 30 µM (inactive) | > 30 µM (inactive) | > 30 µM (inactive) | CCNC(=O)C#Cc1ccc2c(c1)NC(=O)/C2=C(\Nc1ccc(CN(C)C)cc1)c1ccccc1 | > 30 µM (inactive)
23 |  | 3.92 µM | > 30 µM (inactive) | > 30 µM (inactive) | COc1cc(Nc2ncc3c(n2)-c2ccc(Cl)cc2C(c2c(F)cccc2OC)=NC3)ccc1C(=O)O [ALISERTIB] | > 30 µM (inactive)
24 |  | > 30 µM (inactive) | > 30 µM (inactive) | > 30 µM (inactive) | CCS(=O)(=O)c1cccc(-c2cc(C(=O)NC3CCN(C)CC3)c(C)c3[nH]c4ncc(C)cc4c23)c1 [TAK-901] | > 30 µM (inactive)
25 | > 30 µM (inactive) | > 30 µM (inactive) | > 30 µM (inactive) | > 30 µM (inactive) | O=C(Cc1ccc(-c2ccc(OCCN3CCOCC3)cc2)cn1)NCc1ccccc1 [TIRBANIBULIN] | > 30 µM (inactive)
26 |  | > 30 µM (inactive) | > 30 µM (inactive) |  | CNC(=O)c1nn(C)c2c1C(C)(C)Cc1cnc(Nc3ccc(N4CCN(C)CC4)cc3)nc1-2 [MILCICLIB] | > 30 µM (inactive)
27 | > 30 µM (inactive) |  | > 30 µM (inactive) | > 30 µM (inactive) | Cn1ncc(Cl)c1-c1cc(C(=O)N[C@H](CN)Cc2ccc(F)c(F)c2)oc1Cl [UPROSERTIB] | > 30 µM (inactive)
28 | > 30 µM (inactive) |  | > 30 µM (inactive) | > 30 µM (inactive) | Cc1csc(-c2nnc(Nc3ccc(Oc4ncccc4-c4ccnc(N)n4)cc3)c3ccccc23)c1 [AMG-900] | > 30 µM (inactive)
29 |  | > 30 µM (inactive) |  |  | CNC(=O)c1ccccc1Sc1ccc2c(/C=C/c3ccccn3)n[nH]c2c1 [AXITINIB] | 
30 |  | > 30 µM (inactive) | > 30 µM (inactive) |  | C[C@@H](Oc1cc(-n2cnc3ccc(CN4CCN(C)CC4)cc32)sc1C(N)=O)c1ccccc1C(F)(F)F [GSK-461364] | 
